Legend:
Type in all cases: functional
[1] = system: NCI-H23; assay: Cytotoxicity against human NCI-H23 cells assessed as cell growth at 10^-4 M after 48 hrs by SRB assay relative to control; conditions: NCI-H23, 48 h, read-out: Activity
[2] = Cytotoxicity against human HCT116 cells assessed as cell growth at 10^-4 M after 48 hrs by SRB assay relative to control; conditions: HCT-116, 48 h, read-out: Activity
[3] = system: ACHN; assay: Cytotoxicity against human ACHN cells after 48 hrs by SRB assay
[4] = system: U-251; assay: Cytotoxicity against human U251 cells assessed as cell growth at 10^-4 M after 48 hrs by SRB assay relative to control; conditions: U-251, 48 h, read-out: Activity
[5] = system: NCI-H226; assay: Cytotoxicity against human NCI-H226 cells assessed as cell growth at 10^-8 M after 48 hrs by SRB assay relative to control; conditions: NCI-H226, 48 h, read-out: Activity
[6] = system: NCI-H322M; assay: Cytotoxicity against human NCI-H322M cells assessed as cell growth at 10^-8 M after 48 hrs by SRB assay relative to control; conditions: read-out: Activity
[7] = system: HCC 2998; assay: Cytotoxicity against human HCC2998 cells assessed as cell growth at 10^-8 M after 48 hrs by SRB assay relative to control; conditions: HCC 2998, 48 h, read-out: Activity
[8] = system: SW-620; assay: Cytotoxicity against human SW620 cells assessed as cell growth at 10^-8 M after 48 hrs by SRB assay relative to control; conditions: SW-620, 48 h, read-out: Activity
[9] = system: Malme-3M; assay: Cytotoxicity against human MALME-3M cells assessed as cell growth at 10^-8 M after 48 hrs by SRB assay relative to control; conditions: read-out: Activity
[10] = Cytotoxicity against human NCI-ADR-RES cells assessed as cell growth at 10^-4 M after 48 hrs by SRB assay relative to control; conditions: read-out: Activity
[11] = system: A498; assay: Cytotoxicity against human A498 cells assessed as cell growth at 10^-4 M after 48 hrs by SRB assay relative to control; conditions: A498, 48 h, read-out: Activity
[12] = Cytotoxicity against human OVCAR4 cells assessed as cell growth at 10^-8 M after 48 hrs by SRB assay relative to control; conditions: OVCAR-4, 48 h, read-out: Activity
[13] = Cytotoxicity against human SKOV3 cells assessed as cell growth at 10^-8 M after 48 hrs by SRB assay relative to control; conditions: SK-OV-3, 48 h, read-out: Activity
[14] = system: RXF 393; assay: Cytotoxicity against human RXF393 cells assessed as cell growth at 10^-8 M after 48 hrs by SRB assay relative to control; conditions: RXF 393, 48 h, read-out: Activity
[15] = system: TK-10; assay: Cytotoxicity against human TK10 cells assessed as cell growth at 10^-8 M after 48 hrs by SRB assay relative to control; conditions: TK-10, 48 h, read-out: Activity
[16] = Cytotoxicity against human UO31 cells assessed as cell growth at 10^-8 M after 48 hrs by SRB assay relative to control; conditions: UO-31, 48 h, read-out: Activity
[17] = system: A549; assay: Cytotoxicity against human A549 cells assessed as cell growth at 10^-7 M after 48 hrs by SRB assay relative to control; conditions: A549, 48 h, read-out: Activity
[18] = Cytotoxicity against human EKVX cells assessed as cell growth at 10^-7 M after 48 hrs by SRB assay relative to control; conditions: read-out: Activity
[19] = Cytotoxicity against human HCT15 cells assessed as cell growth at 10^-7 M after 48 hrs by SRB assay relative to control; conditions: HCT-15, 48 h, read-out: Activity
[20] = system: HT-29; assay: Cytotoxicity against human HT-29 cells assessed as cell growth at 10^-7 M after 48 hrs by SRB assay relative to control; conditions: HT-29, 48 h, read-out: Activity
[21] = system: SF-268; assay: Cytotoxicity against human SF268 cells after 48 hrs by SRB assay; conditions: SF-268, 48 h; for CC50: read-out: LC50 (the source's name)
[22] = system: SNB-19; assay: Cytotoxicity against human SNB19 cells after 48 hrs by SRB assay; conditions: SNB-19, 48 h; for CC50: read-out: LC50 (the source's name)
[23] = Cytotoxicity against human NCI-ADR-RES cells assessed as cell growth at 10^-7 M after 48 hrs by SRB assay relative to control; conditions: read-out: Activity
[24] = system: MDA-MB-468; assay: Cytotoxicity against human MDA-MB-468 cells assessed as cell growth at 10^-7 M after 48 hrs by SRB assay relative to control; conditions: MDA-MB-468, 48 h, read-out: Activity
[25] = system: HOP-62; assay: Cytotoxicity against human HOP62 cells assessed as cell growth at 10^-6 M after 48 hrs by SRB assay relative to control; conditions: HOP-62, 48 h, read-out: Activity
[26] = system: NCI-H226; assay: Cytotoxicity against human NCI-H226 cells assessed as cell growth at 10^-6 M after 48 hrs by SRB assay relative to control; conditions: NCI-H226, 48 h, read-out: Activity
[27] = system: KM12; assay: Cytotoxicity against human KM12 cells assessed as cell growth at 10^-6 M after 48 hrs by SRB assay relative to control; conditions: KM12, 48 h, read-out: Activity
[28] = system: SNB-75; assay: Cytotoxicity against human SNB75 cells assessed as cell growth at 10^-6 M after 48 hrs by SRB assay relative to control; conditions: SNB-75, 48 h, read-out: Activity
[29] = system: SK-MEL-28; assay: Cytotoxicity against human SK-MEL-28 cells assessed as cell growth at 10^-6 M after 48 hrs by SRB assay relative to control; conditions: SK-MEL-28, 48 h, read-out: Activity
[30] = system: SK-MEL-5; assay: Cytotoxicity against human SK-MEL-5 cells assessed as cell growth at 10^-6 M after 48 hrs by SRB assay relative to control; conditions: SK-MEL-5, 48 h, read-out: Activity
[31] = Cytotoxicity against human OVCAR3 cells assessed as cell growth at 10^-6 M after 48 hrs by SRB assay relative to control; conditions: OVCAR-3, 48 h, read-out: Activity
[32] = system: A498; assay: Cytotoxicity against human A498 cells assessed as cell growth at 10^-6 M after 48 hrs by SRB assay relative to control; conditions: A498, 48 h, read-out: Activity
[33] = Cytotoxicity against human PC3 cells assessed as cell growth at 10^-6 M after 48 hrs by SRB assay relative to control; conditions: PC-3, 48 h, read-out: Activity
[34] = system: MCF7; assay: Cytotoxicity against human MCF7 cells assessed as cell growth at 10^-6 M after 48 hrs by SRB assay relative to control; conditions: MCF7, 48 h, read-out: Activity
[35] = Cytotoxicity against human Hs 578T cells assessed as cell growth at 10^-6 M after 48 hrs by SRB assay relative to control; conditions: read-out: Activity
[36] = Cytotoxicity against human EKVX cells assessed as cell growth at 10^-4 M after 48 hrs by SRB assay relative to control; conditions: read-out: Activity

COc1ccc(CCN2COc3c([C@@H](C)CCC=C(C)C)ccc(C)c3C2)cc1OC
growth at 100 µM [1]: -92% | growth at 100 µM [2]: -100% | GI50 [3]: 6.11 µM | LC50 (concentration killing 50% of cells) [3]: 48.1 µM | TGI [3]: 20.2 µM | growth at 100 µM [4]: -100% | growth at 0.01 µM [5]: 90% | growth at 0.01 µM [6]: 87% | growth at 0.01 µM [7]: 77% | growth at 0.01 µM [8]: 97% | growth at 0.01 µM [9]: 91% | growth at 100 µM [10]: -90% | growth at 100 µM [11]: -93% | growth at 0.01 µM [12]: 96% | growth at 0.01 µM [13]: 97% | growth at 0.01 µM [14]: 70% | growth at 0.01 µM [15]: 88% | growth at 0.01 µM [16]: 86% | growth at 0.1 µM [17]: 96% | growth at 0.1 µM [18]: 91% | growth at 0.1 µM [19]: 86% | growth at 0.1 µM [20]: 93% | GI50 [21]: 1.45 µM | TGI [21]: 4.34 µM | CC50 [21]: 17.3 µM | GI50 [22]: 12.1 µM | TGI [22]: 42.8 µM | CC50 [22]: > 100 µM | growth at 0.1 µM [23]: 99% | growth at 0.1 µM [24]: 60% | growth at 1 µM [25]: 97% | growth at 1 µM [26]: 94% | growth at 1 µM [27]: 93% | growth at 1 µM [28]: 86% | growth at 1 µM [29]: 99% | growth at 1 µM [30]: 90% | growth at 1 µM [31]: 91% | growth at 1 µM [32]: 68% | growth at 1 µM [33]: 81% | growth at 1 µM [34]: 99% | growth at 1 µM [35]: 93% | growth at 100 µM [36]: -40%

CC(C)=CCC[C@H](C)c1ccc(C)c2c1OCN(CC1CCNCC1)C2
growth at 100 µM [1]: -71% | growth at 100 µM [2]: -80% | GI50 [3]: 15.3 µM | LC50 (concentration killing 50% of cells) [3]: 58.9 µM | TGI [3]: 30 µM | growth at 100 µM [4]: -87% | growth at 0.01 µM [5]: 86% | growth at 0.01 µM [6]: 98% | growth at 0.01 µM [7]: 111% | growth at 0.01 µM [8]: 96% | growth at 0.01 µM [9]: 92% | growth at 100 µM [10]: -73% | growth at 100 µM [11]: -90% | growth at 0.01 µM [12]: 102% | growth at 0.01 µM [13]: 101% | growth at 0.01 µM [14]: 86% | growth at 0.01 µM [15]: 118% | growth at 0.01 µM [16]: 95% | growth at 0.1 µM [17]: 90% | growth at 0.1 µM [18]: 103% | growth at 0.1 µM [19]: 91% | growth at 0.1 µM [20]: 112% | GI50 [21]: 16.6 µM | TGI [21]: 33.3 µM | CC50 [21]: 66.7 µM | GI50 [22]: 14 µM | TGI [22]: 29.4 µM | CC50 [22]: 61.8 µM | growth at 0.1 µM [23]: 98% | growth at 0.1 µM [24]: 94% | growth at 1 µM [25]: 90% | growth at 1 µM [26]: 101% | growth at 1 µM [27]: 103% | growth at 1 µM [28]: 85% | growth at 1 µM [29]: 101% | growth at 1 µM [30]: 96% | growth at 1 µM [31]: 105% | growth at 1 µM [32]: 102% | growth at 1 µM [33]: 103% | growth at 1 µM [34]: 104% | growth at 1 µM [35]: 104% | growth at 100 µM [36]: -17%

CC(C)=CCC[C@H](C)c1ccc(C)c(CNCC2CCNCC2)c1O
growth at 100 µM [1]: 54% | growth at 100 µM [2]: -39% | GI50 [3]: 4.68 µM | LC50 (concentration killing 50% of cells) [3]: > 25 µM | TGI [3]: 12.7 µM | growth at 100 µM [4]: -81% | growth at 0.01 µM [5]: 98% | growth at 0.01 µM [6]: 99% | growth at 0.01 µM [7]: 101% | growth at 0.01 µM [8]: 100% | growth at 0.01 µM [9]: 97% | growth at 100 µM [10]: 46% | growth at 100 µM [11]: 43% | growth at 0.01 µM [12]: 100% | growth at 0.01 µM [13]: 99% | growth at 0.01 µM [14]: 101% | growth at 0.01 µM [15]: 92% | growth at 0.01 µM [16]: 88% | growth at 0.1 µM [17]: 98% | growth at 0.1 µM [18]: 94% | growth at 0.1 µM [19]: 100% | growth at 0.1 µM [20]: 105% | GI50 [21]: 7.12 µM | TGI [21]: > 25 µM | CC50 [21]: > 25 µM | GI50 [22]: 3.99 µM | TGI [22]: > 25 µM | CC50 [22]: > 25 µM | growth at 0.1 µM [23]: 100% | growth at 0.1 µM [24]: 77% | growth at 1 µM [25]: 97% | growth at 1 µM [26]: 86% | growth at 1 µM [27]: 93% | growth at 1 µM [28]: 89% | growth at 1 µM [29]: 98% | growth at 1 µM [30]: 93% | growth at 1 µM [31]: 103% | growth at 1 µM [32]: 79% | growth at 1 µM [33]: 101% | growth at 1 µM [34]: 93% | growth at 1 µM [35]: 97% | growth at 100 µM [36]: 35%

Source: ChEMBL document CHEMBL3390836, “Mannich- and LedererManasse-based analogues of the natural product S-(+)-curcuphenol as cancer proliferation and migration inhibitors” (Medchemcomm, 2012)
